Key:
cIAP-1 BIR-3 = cIAP-1 BIR-3 (Homo sapiens, UniProt Q13490); test: Fluorescence polarization binding affinity to cIAP-1 BIR-3 (competition with AbuRPF-K(5-Fam)-NH2); conditions: 5 nM labeled peptide, 40 nM BIR3, 15 min at RT, pH 7.5; reported as ranges; read-out: KD (c-IAP-1 BIR3)
Procedure: (§1) The binding affinities of the compounds are reported as a KD value (μM). Briefly, various concentrations of test peptides were mixed with 5 nM of the fluorescently labeled peptide (i.e., a mutated N-terminal Smac peptide—AbuRPF-K(5-Fam)-NH2) and 40 nM of the respective IAP BIR3 for 15 min at RT in […] of 0.1M Potassium Phosphate buffer, pH 7.5 containing […] bovine g-globulin. Following incubation, the polarization values (mP) were measured on a Victor2V (available from PerkinElmer Life Sciences) using a 485 nm excitation filter and a 520 nm emission filter. The reported KD values are supplied as ranges (A=<0.1 μM, B=0.1 μM to 1 μM, C>1 μM to 10 μM, D=>10 μM).

XIAP BIR-3 = target: T1, XIAP BIR-3 (Homo sapiens, UniProt P98170); test: Fluorescence polarization binding affinity to XIAP BIR-3 (competition with AbuRPF-K(5-Fam)-NH2); conditions: 5 nM labeled peptide, 40 nM BIR3, 15 min at RT, pH 7.5; reported as ranges
T1 construct: 40 nM of the respective IAP BIR3
T1 sequence (P98170 241-356 limits assumed): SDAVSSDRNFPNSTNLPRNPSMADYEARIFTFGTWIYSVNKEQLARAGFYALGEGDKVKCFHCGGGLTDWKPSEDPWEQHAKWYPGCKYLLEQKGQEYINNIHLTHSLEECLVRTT
Procedure: as §1

SK-OV-3 cells = test: Growth inhibition of ovarian cancer cell line SK-OV-3 (MTT assay, cell survival); format: cell-based; conditions: Homo sapiens, drug concentration that results in 50% cell survival, 72 hrs incubation, reported as ranges
Procedure: Compounds of the invention also were tested for their ability to inhibit the growth of an ovarian cancer cell line, SK-OV-3. A known assay previously used for measuring cell growth (as described in Hansen, M. B., Nielsen, S. E., and Berg, K. (1989) J. Immunol. Methods 119, 203-210 and incorporated herein by reference in its entirety) was used. Briefly, SK-OV-3 cells are seeded in 96-well plates in McCoy's medium containing 10% fetal bovine serum albumin (5,000 per well) and incubated overnight at 37° C. The next day, test compounds are added at various concentrations (0.003-10 μM) and the plates are incubated at 37° C. for an additional 72 hrs. This incubation time was considered to be optimal for measuring inhibitory effects of the different compounds tested. 50 microliters of 5 mg/mL MTT reagent is added to each well and the plates are incubated at 37° C. for another three (3) hours. At the end of the three (3) hour incubation period, 50 microliters of DMSO is added to each well to dissolve cells and the optical density (OD) of the wells is measured with a microplate reader (Victor^2 1420, Wallac, Finland) at 535 nm. Cell survival (CS) was calculated using the following equation: CS=(OD treated well/mean OD control wells)×100%.
The CC50 (reported in the following tables), is defined as the drug concentration that results in 50% cell survival (CS), and is derived by calculating the point where the dose-response curve crosses the 50% CS point using GraphPad Prism. The reported CC50 values are supplied as ranges (A=<0.1 μM, B=0.1 μM to 1 μM, C=>1 μM to 10 μM, D=>10 μM).

cIAP-1 BIR-3, sequence (Q13490 266-352 limits assumed): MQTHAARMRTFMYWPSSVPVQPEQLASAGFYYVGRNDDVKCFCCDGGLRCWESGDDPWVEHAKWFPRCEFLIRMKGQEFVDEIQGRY

CN[C@@H](C)C(=O)N[C@H](C(=O)N1CC[C@H]2NC[C@@H](c3c[nH]c4ccccc34)[C@H]21)C1CCCCC1 [Example 1, N-{1S-Cyclohexyl-2-[(3aR,6aR)-6R-(1H-indol-3-yl)-hexahydro-pyrrolo[3,2-b]pyrrol-1-yl]-2-oxo-ethyl}-2S-methylamino-propionamide]
Kd (cIAP-1 BIR-3): > 10 µM | Kd (XIAP BIR-3): > 10 µM | CC50 (SK-OV-3 cells): 1 to 10 µM

CN[C@@H](C)C(=O)N[C@H](C(=O)N1CC[C@H]2NC[C@H](c3c[nH]c4ccccc34)[C@H]21)C1CCCCC1 [Example 2, N-{1S-Cyclohexyl-2-[(3aR,6aR)-6S-(1H-indol-3-yl)-hexahydro-pyrrolo[3,2-b]pyrrol-1-yl]-2-oxo-ethyl}-2S-methylamino-propionamide]
Kd (cIAP-1 BIR-3): < 0.1 µM | Kd (XIAP BIR-3): < 0.1 µM | CC50 (SK-OV-3 cells): 0.1 to 1 µM

CN[C@@H](C)C(=O)N[C@H](C(=O)N1CC[C@@H]2[C@H]1[C@H](c1c[nH]c3cc(F)ccc13)CN2C1CCCC1)C(C)(C)C [Example 3, N-{1-[4-Cyclopentyl-6-(6-fluoro-1H-indol-3-yl)-hexahydro-pyrrolo[3,2-b]pyrrole-1-carbonyl]-2,2-dimethyl-propyl}-2-methylamino-propionamide]
Kd (cIAP-1 BIR-3): 1 to 10 µM | Kd (XIAP BIR-3): 1 to 10 µM | CC50 (SK-OV-3 cells): 1 to 10 µM

CN[C@@H](C)C(=O)N[C@H](C(=O)N1CC[C@@H]2[C@H]1[C@@H](c1c[nH]c3cc(F)ccc13)CN2C1CCCC1)C(C)(C)C [Example 4]
Kd (cIAP-1 BIR-3): < 0.1 µM | Kd (XIAP BIR-3): < 0.1 µM | CC50 (SK-OV-3 cells): < 0.1 µM

CC[C@H](NC(=O)[C@H](C)NC)C(=O)N1CC[C@@H]2[C@H]1[C@H](c1c[nH]c3cc(F)ccc13)CN2C1CCCC1 [Example 5, N-{1-[4-Cyclopentyl-6-(6-fluoro-1H-indol-3-yl)-hexahydro-pyrrolo[3,2-b]pyrrole-1-carbonyl]-propyl}-2-methylamino-propionamide]
Kd (cIAP-1 BIR-3): 0.1 to 1 µM | Kd (XIAP BIR-3): > 10 µM | CC50 (SK-OV-3 cells): 1 to 10 µM

CC[C@H](NC(=O)[C@H](C)NC)C(=O)N1CC[C@@H]2[C@H]1[C@@H](c1c[nH]c3cc(F)ccc13)CN2C1CCCC1 [Example 6]
Kd (cIAP-1 BIR-3): 0.1 to 1 µM | Kd (XIAP BIR-3): 0.1 to 1 µM | CC50 (SK-OV-3 cells): 0.1 to 1 µM

CN[C@@H](C)C(=O)N[C@H](C(=O)N1CC[C@@H]2[C@H]1[C@H](c1c[nH]c3cc(F)ccc13)CN2C1CCCC1)C(C)C [Example 7, N-{1-[4-Cyclopentyl-6-(6-fluoro-1H-indol-3-yl)-hexahydro-pyrrolo[3,2-b]pyrrole-1-carbonyl]-2-methyl-propyl}-2-methylamino-propionamide]
Kd (cIAP-1 BIR-3): 0.1 to 1 µM | Kd (XIAP BIR-3): 1 to 10 µM | CC50 (SK-OV-3 cells): 1 to 10 µM

CN[C@@H](C)C(=O)N[C@H](C(=O)N1CC[C@@H]2[C@H]1[C@@H](c1c[nH]c3cc(F)ccc13)CN2C1CCCC1)C(C)C [Example 8]
Kd (cIAP-1 BIR-3): < 0.1 µM | Kd (XIAP BIR-3): 0.1 to 1 µM | CC50 (SK-OV-3 cells): 0.1 to 1 µM

CN[C@@H](C)C(=O)N[C@H](C(=O)N1CC[C@@H]2[C@H]1[C@@H](c1c[nH]c3cc(F)ccc13)CN2C1CCCC1)C1CCCCC1 [Example 9, N-{1-Cyclohexyl-2-[4-cyclopentyl-6-(6-fluoro-1H-indol-3-yl)-hexahydro-pyrrolo[3,2-b]pyrrol-1-yl]-2-oxo-ethyl}-2-methylamino-propionamide]
Kd (cIAP-1 BIR-3): < 0.1 µM | Kd (XIAP BIR-3): 0.1 to 1 µM | CC50 (SK-OV-3 cells): < 0.1 µM

CN[C@@H](C)C(=O)N[C@@H](CO)C(=O)N1CC[C@@H]2[C@H]1[C@H](c1c[nH]c3cc(F)ccc13)CN2C1CCCC1 [Example 10, N-{2-[4-Cyclopentyl-6-(6-fluoro-1H-indol-3-yl)-hexahydro-pyrrolo[3,2-b]pyrrol-1-yl]-1-hydroxymethyl-2-oxo-ethyl}-2-methylamino-propionamide]
Kd (cIAP-1 BIR-3): 0.1 to 1 µM | Kd (XIAP BIR-3): > 10 µM | CC50 (SK-OV-3 cells): 1 to 10 µM

CN[C@@H](C)C(=O)N[C@@H](CO)C(=O)N1CC[C@@H]2[C@H]1[C@@H](c1c[nH]c3cc(F)ccc13)CN2C1CCCC1 [Example 11]
Kd (cIAP-1 BIR-3): < 0.1 µM | Kd (XIAP BIR-3): 0.1 to 1 µM | CC50 (SK-OV-3 cells): > 10 µM

CN[C@@H](C)C(=O)N[C@@H](COC)C(=O)N1CC[C@@H]2[C@H]1[C@H](c1c[nH]c3cc(F)ccc13)CN2C1CCCC1 [Example 12, N-{2-[4-Cyclopentyl-6-(6-fluoro-1H-indol-3-yl)-hexahydro-pyrrolo[3,2-b]pyrrol-1-yl]-1-methoxymethyl-2-oxo-ethyl}-2-methylamino-propionamide]
Kd (cIAP-1 BIR-3): < 0.1 µM | Kd (XIAP BIR-3): 1 to 10 µM | CC50 (SK-OV-3 cells): > 10 µM

CN[C@@H](C)C(=O)N[C@@H](COC)C(=O)N1CC[C@@H]2[C@H]1[C@@H](c1c[nH]c3cc(F)ccc13)CN2C1CCCC1 [Example 13]
Kd (cIAP-1 BIR-3): 0.1 to 1 µM | Kd (XIAP BIR-3): 1 to 10 µM | CC50 (SK-OV-3 cells): 1 to 10 µM

CN[C@@H](C)C(=O)N[C@H](C(=O)N1CC[C@@H]2[C@H]1[C@H](c1c[nH]c3cc(F)ccc13)CN2C1CCCC1)[C@@H](C)O [Example 14, N-{1-[4-Cyclopentyl-6-(6-fluoro-1H-indol-3-yl)-hexahydro-pyrrolo[3,2-b]pyrrole-1-carbonyl]-2-hydroxy-propyl}-2-methylamino-propionamide]
Kd (cIAP-1 BIR-3): 0.1 to 1 µM | Kd (XIAP BIR-3): > 10 µM | CC50 (SK-OV-3 cells): > 10 µM

CN[C@@H](C)C(=O)N[C@H](C(=O)N1CC[C@@H]2[C@H]1[C@@H](c1c[nH]c3cc(F)ccc13)CN2C1CCCC1)[C@@H](C)O [Example 15]
Kd (cIAP-1 BIR-3): 0.1 to 1 µM | Kd (XIAP BIR-3): 0.1 to 1 µM | CC50 (SK-OV-3 cells): 0.1 to 1 µM

CN[C@@H](C)C(=O)N[C@H](C(=O)N1CC[C@@H]2[C@H]1[C@@H](c1c[nH]c3cc(F)ccc13)CN2C1CCCC1)[C@@H](C)OC [Example 16, N-{1-[4-Cyclopentyl-6-(6-fluoro-1H-indol-3-yl)-hexahydro-pyrrolo-[3,2-b]pyrrole-1-carbonyl]-2-methoxy-propyl}-2-methylamino-propionamide]
Kd (cIAP-1 BIR-3): < 0.1 µM | Kd (XIAP BIR-3): 0.1 to 1 µM | CC50 (SK-OV-3 cells): 0.1 to 1 µM

CN[C@@H](C)C(=O)N[C@H](C(=O)N1CC[C@@H]2[C@H]1[C@@H](c1c[nH]c3cc(F)ccc13)CN2C)C1CCCCC1 [Example 17, N-{1-Cyclohexyl-2-[6-(6-fluoro-1H-indol-3-yl)-4-methyl-hexahydro-pyrrolo[3,2-b]pyrrol-1-yl]-2-oxo-ethyl}-2-methylamino-propionamide]
Kd (cIAP-1 BIR-3): < 0.1 µM | Kd (XIAP BIR-3): 0.1 to 1 µM | CC50 (SK-OV-3 cells): 0.1 to 1 µM

CCN1C[C@H](c2c[nH]c3cc(F)ccc23)[C@@H]2[C@H]1CCN2C(=O)[C@@H](NC(=O)[C@H](C)NC)C1CCCCC1 [Example 18, N-{1-Cyclohexyl-2-[4-ethyl-6-(6-fluoro-1H-indol-3-yl)-hexahydro-pyrrolo[3,2-b]pyrrol-1-yl]-2-oxo-ethyl}-2-methylamino-propionamide]
Kd (cIAP-1 BIR-3): < 0.1 µM | Kd (XIAP BIR-3): 0.1 to 1 µM | CC50 (SK-OV-3 cells): 0.1 to 1 µM

CN[C@@H](C)C(=O)N[C@H](C(=O)N1CC[C@@H]2[C@H]1[C@@H](c1c[nH]c3cc(F)ccc13)CN2C(C)C)C1CCCCC1 [Example 19, N-{1-Cyclohexyl-2-[6-(6-fluoro-1H-indol-3-yl)-4-isopropyl-hexahydro-pyrrolo[3,2-b]pyrrol-1-yl]-2-oxo-ethyl}-2-methylamino-propionamide]
Kd (cIAP-1 BIR-3): < 0.1 µM | Kd (XIAP BIR-3): 1 to 10 µM | CC50 (SK-OV-3 cells): 0.1 to 1 µM
